A word on the EC50: it is the concentration giving half of the maximal effect. A low value points to higher potency in that assay.

This assay deals with T1, human M2 receptor (Homo sapiens, UniProt P08172).
T1 sequence (P08172 1-466): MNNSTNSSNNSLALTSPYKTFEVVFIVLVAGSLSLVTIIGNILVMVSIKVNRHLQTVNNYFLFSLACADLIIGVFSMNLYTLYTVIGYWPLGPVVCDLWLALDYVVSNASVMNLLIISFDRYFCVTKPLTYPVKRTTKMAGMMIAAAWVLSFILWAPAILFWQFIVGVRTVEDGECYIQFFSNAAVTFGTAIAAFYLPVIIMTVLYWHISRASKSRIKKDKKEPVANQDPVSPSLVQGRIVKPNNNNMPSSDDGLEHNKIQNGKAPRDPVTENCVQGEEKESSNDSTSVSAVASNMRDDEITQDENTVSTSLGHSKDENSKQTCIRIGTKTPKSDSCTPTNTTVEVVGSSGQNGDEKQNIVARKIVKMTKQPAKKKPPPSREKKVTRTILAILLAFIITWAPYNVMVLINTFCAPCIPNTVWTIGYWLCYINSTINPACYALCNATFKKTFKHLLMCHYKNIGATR

Setting [1] is: Receptor activity EC50, allosteric potency at EC20 acetylcholine, M2-GIRK1/4 reporter cells, in some cases mean of two or more determinations.
Where [2] appears, read: read-out: Efficiency, boosting of the acetylcholine effect at EC20 acetylcholine concentration, M2-GIRK1/4 reporter cells.
Setting [3] is: Receptor activity EC50, M2-GIRK1/4 activation test, acetylcholine at EC20, allosteric potency, in some cases mean values from two or more determinations.

Like-named read-outs stand apart in the source and are kept apart here.

Consider `O=C(N[C@@H](C1CC1)C(F)(F)F)c1cn(-c2c(F)cc(F)cc2Cl)c2nc(N3C[C@@H](O)[C@H](O)C3)ccc2c1=O` [Example 546, 1-(2-Chloro-4,6-difluorophenyl)-N-[(1 S)-1-cyclopropyl-2,2,2-trifluoroethyl]-7-[(3R,4R)-3,4-dihydroxypyrrolidin-1-yl]-4-oxo-1,4-dihydro-1,8-naphthyridine-3-carboxamide], for which, under setting [1], the concentration giving a half-maximal response (EC50) is 10 nM. For the same compound, under setting [2], the Emax was 100%.

For the compound `CC[C@@H](NC(=O)c1cn(-c2c(Cl)cc(F)cc2Cl)c2nc(N3C[C@@H](O)CC3=O)ccc2c1=O)C(F)(F)F` [Example 388, 1-(2,6-Dichloro-4-fluorophenyl)-7-[(4S)-4-hydroxy-2-oxopyrrolidin-1-yl]-4-oxo-N-[(2R)-1,1,1-trifluorobutan-2-yl]-1,4-dihydro-1,8-naphthyridine-3-carboxamide], the midpoint of the response under setting [3], the EC50, lay at 52 nM. The Emax (read-out: Efficiency) turned out to be 89%.

`CC(C)(C)[C@H](NC(=O)c1cn(-c2c(F)cc(F)cc2F)c2nc(N3CCNC3=O)ccc2c1=O)C(F)(F)F` [Example 359, 4-Oxo-7-(2-oxoimidazolidin-1-yl)-N-[(2S)-1,1,1-trifluoro-3,3-dimethylbutan-2-yl]-1-(2,4,6-trifluorophenyl)-1,4-dihydro-1,8-naphthyridine-3-carboxamide] returned an EC50 under setting [3] of 13 nM.

`O=C(NC(c1ccccc1Cl)C(F)(F)F)c1cn(-c2ccccc2F)c2nc(N3CCC(O)C3=O)ccc2c1=O` (single isomer, unassigned) [Example 291] gave an EC50 under setting [3] of 673 nM.

For the compound `COC1CN(c2ccc3c(=O)c(C(=O)N[C@@H](C4CC4)C(F)(F)F)cn(-c4c(F)cc(F)cc4F)c3n2)CC1O` (mixture of isomers) [Example 582, N-[(1 S)-1-Cyclopropyl-2,2,2-trifluoroethyl]-7-[trans-3-hydroxy-4-methoxypyrrolidin-1-yl]-4-oxo-1-(2,4,6-trifluorophenyl)-1,4-dihydro-1,8-naphthyridine-3-carboxamide], the EC50 under setting [1] turned out to be 14 nM. Further, the Emax under setting [2] amounted to 100%.

The compound `CNc1ccc2c(=O)c(C(=O)NC34CC5CC(C3)C(F)(F)C(C5)C4)cn(-c3ccc(F)cc3F)c2n1` [Example 161] showed an EC50 under setting [3] of 137 nM.

With `CC[C@@H](NC(=O)c1cn(-c2c(F)cccc2F)c2nc(N3CCC(O)C3=O)ccc2c1=O)C(F)(F)F` (single isomer, unassigned) [Example 293], the midpoint of the response under setting [3], the EC50, lay at 73 nM.

The compound `CC(C)CC(NC(=O)c1cn(-c2ccc(F)cc2F)c2nc(N(C)C)ccc2c1=O)C(F)(F)F` (racemic) [Example 145, rac-1-(2,4-Difluorophenyl)-7-(dimethylamino)-4-oxo-N-(1,1,1-trifluoro-4-methylpentan-2-yl)-1,4-dihydro-1,8-naphthyridine-3-carboxamide] registered an EC50 under setting [3] of 30 nM.

In turn, `CN1CCN(c2ccc3c(=O)c(C(=O)N[C@@H](C4CC4)C(F)(F)F)cn(-c4c(F)cc(F)cc4F)c3n2)CC1` [Example 490] registered an EC50 under setting [1] of 103 nM. Besides, the Emax under setting [2] is 91.5%.

`O=C(N[C@@H](C1CC1)C(F)(F)F)c1cn(-c2c(F)cc(F)cc2Cl)c2nc(N3C[C@@H](O)[C@H](O)C3)ccc2c1=O` (single isomer, unassigned) [Example 547]: under setting [1], a half-maximal effect (EC50) was put at 120 nM. Also, the Emax under setting [2] stood at 90%.

For `O=C(NC(c1c(F)cccc1F)C(F)(F)F)c1cn(-c2ccc(F)cc2F)c2nc(N3CCCC(O)C3=O)ccc2c1=O` (centres unmarked) [Example 247, 1-(2,4-Difluorophenyl)-N-[1-(2,6-difluorophenyl)-2,2,2-trifluoroethyl]-7-[3-hydroxy-2-oxopiperidin-1-yl]-4-oxo-1,4-dihydro-1,8-naphthyridine-3-carboxamide], the EC50 under setting [3] was found to be 160 nM.

`C[C@@H](NC(=O)c1cn(-c2c(F)cc(F)cc2F)c2nc(N3C[C@@H](O)CC3=O)ccc2c1=O)C1CC1` [Example 480, N-[(1R)-1-Cyclopropylethyl]-7-[(4S)-4-hydroxy-2-oxopyrrolidin-1-yl]-4-oxo-1-(2,4,6-trifluorophenyl)-1,4-dihydro-1,8-naphthyridine-3-carboxamide] returned a concentration giving a half-maximal response (EC50) under setting [1] of 46 nM. Besides, the Emax under setting [2] was found to be 100%.

`O=C(N[C@@H](C1CC1)C(F)(F)F)c1cn(-c2c(F)cc(F)cc2F)c2nc(N3CC[C@@H](O)C3=O)ccc2c1=O` [Example 466, N-[(1 S)-1-Cyclopropyl-2,2,2-trifluoroethyl]-7-[(3R)-3-hydroxy-2-oxopyrrolidin-1-yl]-4-oxo-1-(2,4,6-trifluorophenyl)-1,4-dihydro-1,8-naphthyridine-3-carboxamide]: the concentration giving a half-maximal response (EC50) under setting [1] was determined as 26 nM. The Emax under setting [2] turned out to be 100%.

In the case of `O=C(NC(C(F)(F)F)C(F)(F)F)c1cn(-c2c(F)cc(F)cc2F)c2nc(N3C[C@@H](O)CC3=O)ccc2c1=O` [Example 555, N-(1,1,1,3,3,3-Hexafluoropropan-2-yl)-7-[(4S)-4-hydroxy-2-oxopyrrolidin-1-yl]-4-oxo-1-(2,4,6-trifluorophenyl)-1,4-dihydro-1,8-naphthyridine-3-carboxamide], it took 10 nM to reach a half-maximal effect under setting [1] (EC50). Also, the Emax under setting [2] came to 100%.

`O=C(NC(CC(F)(F)F)C(F)(F)F)c1cn(-c2c(F)cc(F)cc2F)c2nc(N3C[C@@H](O)CC3=O)ccc2c1=O` (mixture of isomers) [Example 606, N-[1,1,1,4,4,4-Hexafluorobutan-2-yl]-7-[(4S)-4-hydroxy-2-oxopyrrolidin-1-yl]-4-oxo-1-(2,4,6-trifluorophenyl)-1,4-dihydro-1,8-naphthyridine-3-carboxamide] returned a half-maximal effective concentration (EC50) under setting [1] of 27 nM. Further, the Emax under setting [2] is 98%.

As to `O=C1CN(c2ccc3c(=O)c(C(=O)NC45CC6CC(CC(C6)C4)C5)cn(-c4ccc(F)cc4F)c3n2)CCN1` [Example 18, 1-(2,4-Difluorophenyl)-4-oxo-7-(3-oxopiperazin-1-yl)-N-(tricyclo[3.3.1.1^3,7]dec-1-yl)-1,4-dihydro-1,8-naphthyridine-3-carboxamide], under setting [3], the midpoint of the response, the EC50, lay at 117 nM.

Under setting [3], `CC(C)C(NC(=O)c1cn(-c2ccc(F)cc2F)c2nc(N3CC[C@H](F)C3)ccc2c1=O)C(F)(F)F` (stereo partly drawn) [Example 69, 1-(2,4-Difluorophenyl)-7-[(3S)-3-fluoropyrrolidin-1-yl]-4-oxo-N-[1,1,1-trifluoro-3-methylbutan-2-yl]-1,4-dihydro-1,8-naphthyridine-3-carboxamide] gave an EC50 of 13 nM. This EC50 is about 9-fold lower than that of the compound before.

In turn, `C[C@@H]1C[C@](C)(O)CN1c1ccc2c(=O)c(C(=O)N[C@@H](C)C(F)(F)F)cn(-c3c(F)cc(F)cc3Cl)c2n1` [Example 390, 1-(2-Chloro-4,6-difluorophenyl)-7-[(2R,4S)-4-hydroxy-2,4-dimethylpyrrolidin-1-yl]-4-oxo-N-[(2S)-1,1,1-trifluoropropan-2-yl]-1,4-dihydro-1,8-naphthyridine-3-carboxamide] had an EC50 under setting [3] of 14 nM.

`CCC(NC(=O)c1cn(-c2c(F)cc(F)cc2F)c2nc(N3C[C@@H](O)[C@H](O)C3)ccc2c1=O)C(C)C` (mixture of isomers) [Example 487, 7-[(3R,4R)-3,4-Dihydroxypyrrolidin-1-yl]-N-[2-methylpentan-3-yl]-4-oxo-1-(2,4,6-trifluorophenyl)-1,4-dihydro-1,8-naphthyridine-3-carboxamide]: under setting [1], the half-maximal effective concentration (EC50) was 12 nM. The Emax under setting [2] was 96.5%.

The values are drawn from patent US20190367516A1 (Bayer Pharma Aktiengesellschaft, priority 2015, published 2019).
